Consider 12 compounds from patent publication US8013156B2 (Exelixis, Inc., priority 2003, dated 2011).

Chain of Tie-2 (Q02763 23-1124): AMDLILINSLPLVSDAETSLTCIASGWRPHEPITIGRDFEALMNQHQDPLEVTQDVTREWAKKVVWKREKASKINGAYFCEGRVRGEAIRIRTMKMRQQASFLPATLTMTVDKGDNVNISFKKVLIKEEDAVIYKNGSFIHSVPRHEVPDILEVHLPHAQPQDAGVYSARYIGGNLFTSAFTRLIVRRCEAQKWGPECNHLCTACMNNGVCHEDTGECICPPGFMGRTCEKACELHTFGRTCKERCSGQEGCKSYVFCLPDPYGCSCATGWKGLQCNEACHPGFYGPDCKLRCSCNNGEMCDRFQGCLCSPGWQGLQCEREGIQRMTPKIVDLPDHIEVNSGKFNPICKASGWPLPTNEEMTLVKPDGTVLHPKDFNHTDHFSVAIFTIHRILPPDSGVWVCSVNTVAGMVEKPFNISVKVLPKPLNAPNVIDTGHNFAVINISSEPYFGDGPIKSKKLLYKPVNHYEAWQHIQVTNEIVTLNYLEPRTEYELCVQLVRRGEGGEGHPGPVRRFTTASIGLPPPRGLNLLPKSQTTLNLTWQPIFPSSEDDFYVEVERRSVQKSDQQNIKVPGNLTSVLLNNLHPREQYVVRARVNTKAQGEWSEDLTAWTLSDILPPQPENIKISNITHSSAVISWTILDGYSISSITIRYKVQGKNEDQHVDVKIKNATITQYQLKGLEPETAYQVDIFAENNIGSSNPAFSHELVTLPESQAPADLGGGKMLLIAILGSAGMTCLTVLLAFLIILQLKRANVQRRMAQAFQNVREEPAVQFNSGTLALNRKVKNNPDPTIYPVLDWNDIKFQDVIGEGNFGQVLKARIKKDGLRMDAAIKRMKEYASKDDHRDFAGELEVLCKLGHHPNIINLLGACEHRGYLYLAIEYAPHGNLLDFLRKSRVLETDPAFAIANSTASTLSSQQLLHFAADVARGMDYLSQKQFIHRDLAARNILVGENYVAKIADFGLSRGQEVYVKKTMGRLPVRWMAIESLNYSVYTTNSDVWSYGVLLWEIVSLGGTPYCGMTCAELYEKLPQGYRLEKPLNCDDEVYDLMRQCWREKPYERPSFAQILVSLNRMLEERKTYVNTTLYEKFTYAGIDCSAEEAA

The test has as its target Tie-2 (Homo sapiens, UniProt Q02763). The experiment in a line: Tie-2 tyrosine kinase activity assay (luciferase/luciferin ATP consumption with pEY substrate, or 33P-ATP incorporation). In kind it is biochemical. The note with it: human enzyme Tie-2. As for the experimental part:
One measure of inhibition is Ki. […] The Ki for a compound is determined from the IC50 based on three assumptions. First, only one compound molecule binds to the enzyme and there is no cooperativity. […] Third, the enzymatic rate of the enzyme-inhibitor complex is zero. The rate data (i.e. compound concentration) are fitted to the equation:
[formula] where V is the observed rate, Vmax, is the rate of the free enzyme, I0 is the inhibitor concentration, E0 is the enzyme concentration, and Kd is the dissociation constant of the enzyme-inhibitor complex.
Tyrosine kinase activity is determined by 1) measurement of kinase-dependent ATP consumption by in the presence of a generic substrate such as […], tyrosine (pEY), by luciferase/luciferin-mediated chemiluminescence or; 2) incorporation of radioactive phosphate derived from ^33P-ATP into a generic substrate which has been adsorbed onto the well surface of polystyrene microtiter plates. Phosphorylated substrate products are quantified by scintillation spectrometry.
Inhibition is indicated as IC50 with following key: A=IC50 less than 50 nM, B=IC50 greater than 50 nM, but less than or equal to 1000 nM, C=IC50 greater than 1000 nM, but less than 10,000 nM, D=IC50 10,000 nM or greater, and “-”=no data available. The abbreviation for human enzyme, Tie-2, is defined as tyrosine kinase with immunoglobulin and EGF repeats.
As a reminder, the IC50 is the concentration that inhibits the measured activity by half. A lower IC50 goes with higher potency. `Nc1nccc(COc2nccnc2N2CCN(C(=O)Nc3cc(C(F)(F)F)cc(C(F)(F)F)c3)CC2)n1` [Example 135, 4-(3-{[(2-aminopyrimidin-4-yl)methyl]oxy}pyrazin-2-yl)-N-[3,5-bis(trifluoromethyl)phenyl]piperazine-1-carboxamide]: the half-inhibitory concentration (IC50) is below 50 nM.

Compound `CCc1cc(Cl)cc(NC(=O)N2CCN(c3ncccc3OCc3ccnc(N)n3)CC2)c1` [Example 179, 4-(3-{[(2-aminopyrimidin-4-yl)methyl]oxy}pyridin-2-yl)-N-(3-chloro-5-ethylphenyl)piperazine-1-carboxamide] displayed a 50% inhibitory concentration (IC50) below 50 nM.

In turn, `CCOC(=O)Nc1cc(COc2nsnc2N2CCN(C(=O)Nc3cc(C(F)(F)F)cc(C(F)(F)F)c3)CC2)ccn1` [Example 153, ethyl {4-[({4-[4-({[3,5-bis(trifluoromethyl)phenyl]amino}carbonyl)piperazin-1-yl]-1,2,5-thiadiazol-3-yl}oxy)methyl]pyridin-2-yl}carbamate] showed a concentration for half-maximal inhibition (IC50) below 50 nM.

The compound `Nc1nccc(COc2cccnc2N2CCN(C(=O)Nc3cccc(C4CC4)c3)CC2)n1` [Example 210, 4-(3-{[(2-aminopyrimidin-4-yl)methyl]oxy}pyridin-2-yl)-N-(3-cyclopropylphenyl)piperazine-1-carboxamide] displayed a half-maximal inhibitory concentration (IC50) below 50 nM.

`CCc1cccc(NC(=O)N2CCN(c3ncccc3OCc3ccnc(NC(=O)OCCN4CCN(C)CC4)c3)CC2)c1` [Example 182, 2-(4-methylpiperazin-1-yl)ethyl [4-({[2-(4-{[(3-ethylphenyl)amino]carbonyl}piperazin-1-yl)pyridin-3-yl]oxy}methyl)pyridin-2-yl]carbamate] yielded an IC50 below 50 nM.

Regarding `CNc1nccc(COc2nsnc2N2CCN(C(=O)Nc3cc(C(F)(F)F)cc(C(F)(F)F)c3)CC2)n1` [Example 108, N-[3,5-bis(trifluoromethyl)phenyl]-4-[4-({[2-(methylamino)pyrimidin-4-yl]methyl}oxy)-1,2,5-thiadiazol-3-yl]piperazine-1-carboxamide], the IC50 was below 50 nM.

In turn, `O=C(Nc1cc(C(F)(F)F)cc(C(F)(F)F)c1)N1CCN(c2nsnc2OCc2ccnc(NCc3ccccc3)n2)CC1` [Example 117, N-[3,5-bis(trifluoromethyl)phenyl]-4-{4-[({2-[(phenylmethyl)amino]pyrimidin-4-yl}methyl)oxy]-1,2,5-thiadiazol-3-yl}piperazine-1-carboxamide] yielded an IC50 of 50 to 1000 nM.

With `Nc1nccc(COc2cccnc2N2CCN(C(=O)Nc3cc(F)cc(C(F)(F)F)c3)CC2)n1` [Example 196, 4-(3-{[(2-aminopyrimidin-4-yl)methyl]oxy}pyridin-2-yl)-N-[3-fluoro-5-(trifluoromethyl)phenyl]piperazine-1-carboxamide], the IC50 is below 50 nM.

As to `O=C(Nc1cccc(C(F)(F)F)c1)N1CCCN(c2nccnc2OCc2ccncc2)CC1` [Example 77, 4-{3-[(pyridin-4-ylmethyl)oxy]pyrazin-2-yl}-N-[3-(trifluoromethyl)phenyl]-1,4-diazepane-1-carboxamide], the concentration for half-maximal inhibition (IC50) was in the range of 50 to 1000 nM.

In turn, `CCNc1nccc(COc2nsnc2N2CCN(C(=O)Nc3cc(C(F)(F)F)cc(C(F)(F)F)c3)CC2)n1` [Example 121, N-[3,5-bis(trifluoromethyl)phenyl]-4-[4-({[2-(ethylamino)pyrimidin-4-yl]methyl}oxy)-1,2,5-thiadiazol-3-yl]piperazine-1-carboxamide] yielded an IC50 below 50 nM.

For `O=C(Nc1cc(C(F)(F)F)cc(C(F)(F)F)c1)N1CCN(c2nccnc2OCc2ccncc2)CC1` [Example 38, N-[3,5-bis(trifluoromethyl)phenyl]-4-{3-[(pyridin-4-ylmethyl)oxy]pyrazin-2-yl}piperazine-1-carboxamide], the half-maximal inhibitory concentration (IC50) is below 50 nM.

Take `O=C(Nc1cc(C(F)(F)F)cc(C(F)(F)F)c1)N1CCN(c2nsnc2OCc2ccnc(NCc3ccccc3)c2)CC1` [Example 115, N-[3,5-bis(trifluoromethyl)phenyl]-4-{4-[({2-[(phenylmethyl)amino]pyridin-4-yl}methyl)oxy]-1,2,5-thiadiazol-3-yl}piperazine-1-carboxamide]: the IC50 fell in the range of 50 to 1000 nM.
